# In patent US20220395549A1, “COMPOSITIONS OF THE OLEA EUROPAEA V. SYLVESTRIS WITH ANTIMICROBIAL EFFICACY” (TAPROGGE GMBH, priority 2019, published 2022):
# Legend:
# test microorganisms = conditions: cited from earlier work
# S. aureus ATCC 6538 = assay: quantitative suspension assay of mono-substances; assay type: cell-based, Staphylococcus aureus; conditions: initial cell load 2.0 × 10^5 CFU/ml
# Procedure: A stock solution was prepared by adding 0.1 ml methanol to 10.48 mg of hydroxytyrosol. After dissolving of the compound, the solution was quantitatively transferred into 4.9 ml water for injection (WFI), effective concentration of hydroxytyrosol: 2.0 mg/ml.
# Using the stock solution, five (5) concentrations of hydroxytyrosol in a geometric series of 2 mg hydroxytyrosol/ml to 0.125 mg hydroxytyrosol/ml were tested in a quantitative suspension assay.
# 2 ml of the stock solution and the dilutions (V1 to V4), respectively, and a methanol-solution of 2% as a positive control were inoculated with 0.1 ml of a test suspension of S. aureus ATCC 6538, adjusted to about 2.0×10^5 CFU/0.1 ml, resulting in about 100,000 CFU/ml in the individual assays.
# Samples (0.1 ml) were then taken at t 0, 12, 30, and 60 minutes as well as t 24 48, and 72 hours after inoculation and culturing at between 20-25° C., and were diluted with 0.9 ml of 0.9% NaCl solution. The samples were plated on blood agar plates, and incubated up to 5 days at between 30-35° C.
# A stock solution was prepared at a concentration of 2 mg/ml of oleocanthal. The compound was dissolved by in ethanol (99.8%) and WFI was added.
# Using the stock solution, concentrations of oleocanthal in a geometric series of 1 mg oleocanthal/ml to 0.125 mg oleocanthal/ml were tested in a quantitative suspension assay.
# 2 ml of the stock solution and the dilutions (V1 to V4), respectively, and a ethanol-solution of 2.85% as a positive control were inoculated with 0.055 ml of a test suspension of S. aureus ATCC 6538, adjusted to about 3.6×10^5 CFU/0.1 ml, resulting in about 99,000 CFU/ml in the individual assays.
# A stock solution was prepared at a concentration of 1 mg/ml of oleacin. The compound was dissolved by in ethanol (99.8%) and WFI was added.
# Using the stock solution, concentrations of oleacin at 0.25 mg oleacin/ml and 0.125 mg oleacin/ml were tested in a quantitative suspension assay.
# 2 ml of the stock solution and the dilutions (V1 and V2), respectively, and a ethanol-solution of 0.44% as a positive control were inoculated with 0.055 ml of a test suspension of S. aureus ATCC 6538, adjusted to about 3.5×10^5 CFU/0.1 ml, resulting in about 99,000 CFU/ml in the individual assays.
# A stock solution was prepared by adding 0.1 ml chloroform to 25 mg of uvaol. After dissolving of the compound, the solution was quantitatively transferred into 12.4 ml water for injection (WFI), effective concentration of uvaol: 2.0 mg/ml.
# Using the stock solution, five (5) concentrations of uvaol in a geometric series of 2 mg uvaol/ml to 0.125 mg uvaol/ml were tested in a quantitative suspension assay.
# 2 ml of the stock solution and the dilutions (V1 to V4), respectively, and a chloroform-solution of 0.8% as a positive control were inoculated with 0.1 ml of a test suspension of S. aureus ATCC 6538, adjusted to about 2.0×10^5 CFU/0.1 ml, resulting in about 100,000 CFU/ml in the individual assays.
# A stock solution was prepared by adding 0.1 ml chloroform to 10.45 mg of erythrodiol. After dissolving of the compound, the solution was quantitatively transferred into 4.9 ml water for injection (WFI), effective concentration of erythrodiol: 2.0 mg/ml.
# 2 ml of the stock solution and the dilutions (V1 to V4), respectively, and a chloroform-solution of 2% as a positive control were inoculated with 0.1 ml of a test suspension of S. aureus ATCC 6538, adjusted to about 3.6×10^5 CFU/0.1 ml, resulting in about 100.000 CFU/ml in the individual assays.
smiles,measurement,setting,value
COc1cc(C(=O)O)cc(OC)c1O [syringic acid],antimicrobial activities of phenolic compounds,test microorganisms,ineffective
C[C@H]1[C@H](C)CC[C@]2(CO)CC[C@]3(C)C(=CC[C@@H]4[C@@]5(C)CC[C@H](O)C(C)(C)[C@@H]5CC[C@]43C)[C@H]12 [uvaol],Number of CFUs,"S. aureus ATCC 6538; 0.125 Uva/ml, t 0 min",6.3 × 10^4 CFU/ml
same,Number of CFUs,"S. aureus ATCC 6538; 0.125 Uva/ml, t 12 min",5.7 × 10^4 CFU/ml
same,Number of CFUs,"S. aureus ATCC 6538; 0.125 Uva/ml, t 30 min",7.6 × 10^4 CFU/ml
same,Number of CFUs,"S. aureus ATCC 6538; 0.125 Uva/ml, t 60 min",6.6 × 10^4 CFU/ml
same,Number of CFUs,"S. aureus ATCC 6538; 0.125 Uva/ml, t 24 h",4.7 × 10^3 CFU/ml
same,Number of CFUs,"S. aureus ATCC 6538; 0.125 Uva/ml, t 48 h",4.2 × 10^3 CFU/ml
same,Number of CFUs,"S. aureus ATCC 6538; 0.125 Uva/ml, t 72 h",8.2 × 10^2 CFU/ml
same,Number of CFUs,"S. aureus ATCC 6538; 0.25 Uva/ml, t 0 min",5.3 × 10^4 CFU/ml
same,Number of CFUs,"S. aureus ATCC 6538; 0.25 Uva/ml, t 12 min",8.1 × 10^4 CFU/ml
same,Number of CFUs,"S. aureus ATCC 6538; 0.25 Uva/ml, t 30 min",5.3 × 10^4 CFU/ml
same,Number of CFUs,"S. aureus ATCC 6538; 0.25 Uva/ml, t 60 min",5.7 × 10^4 CFU/ml
same,Number of CFUs,"S. aureus ATCC 6538; 0.25 Uva/ml, t 24 h",<100 CFU/ml
same,Number of CFUs,"S. aureus ATCC 6538; 0.25 Uva/ml, t 48 h",<100 CFU/ml
same,Number of CFUs,"S. aureus ATCC 6538; 0.25 Uva/ml, t 72 h",<100 CFU/ml
same,Number of CFUs,"S. aureus ATCC 6538; 0.5 Uva/ml, t 0 min",7.0 × 10^4 CFU/ml
same,Number of CFUs,"S. aureus ATCC 6538; 0.5 Uva/ml, t 12 min",7.8 × 10^4 CFU/ml
same,Number of CFUs,"S. aureus ATCC 6538; 0.5 Uva/ml, t 30 min",7.6 × 10^4 CFU/ml
same,Number of CFUs,"S. aureus ATCC 6538; 0.5 Uva/ml, t 60 min",5.7 × 10^4 CFU/ml
same,Number of CFUs,"S. aureus ATCC 6538; 0.5 Uva/ml, t 24 h",<100 CFU/ml
same,Number of CFUs,"S. aureus ATCC 6538; 0.5 Uva/ml, t 48 h",<100 CFU/ml
same,Number of CFUs,"S. aureus ATCC 6538; 0.5 Uva/ml, t 72 h",<100 CFU/ml
same,Number of CFUs,"S. aureus ATCC 6538; 1.0 Uva/ml, t 0 min",7.8 × 10^4 CFU/ml
same,Number of CFUs,"S. aureus ATCC 6538; 1.0 Uva/ml, t 12 min",7.8 × 10^4 CFU/ml
same,Number of CFUs,"S. aureus ATCC 6538; 1.0 Uva/ml, t 30 min",7.4 × 10^4 CFU/ml
same,Number of CFUs,"S. aureus ATCC 6538; 1.0 Uva/ml, t 60 min",5.9 × 10^4 CFU/ml
same,Number of CFUs,"S. aureus ATCC 6538; 1.0 Uva/ml, t 24 h",<100 CFU/ml
same,Number of CFUs,"S. aureus ATCC 6538; 1.0 Uva/ml, t 48 h",<100 CFU/ml
same,Number of CFUs,"S. aureus ATCC 6538; 1.0 Uva/ml, t 72 h",<100 CFU/ml
same,Number of CFUs,"S. aureus ATCC 6538; 2.0 Uva/ml, t 0 min",7.2 × 10^4 CFU/ml
same,Number of CFUs,"S. aureus ATCC 6538; 2.0 Uva/ml, t 12 min",5.9 × 10^4 CFU/ml
same,Number of CFUs,"S. aureus ATCC 6538; 2.0 Uva/ml, t 30 min",7.0 × 10^4 CFU/ml
same,Number of CFUs,"S. aureus ATCC 6538; 2.0 Uva/ml, t 60 min",7.0 × 10^4 CFU/ml
same,Number of CFUs,"S. aureus ATCC 6538; 2.0 Uva/ml, t 24 h",<100 CFU/ml
same,Number of CFUs,"S. aureus ATCC 6538; 2.0 Uva/ml, t 48 h",<100 CFU/ml
same,Number of CFUs,"S. aureus ATCC 6538; 2.0 Uva/ml, t 72 h",<100 CFU/ml
